Holding throughout (assay type): functional, cell-based
The target of assay [1] is T1, Taste receptor type 2 member 10 (Homo sapiens) (UniProt Q9NYW0).
T1 sequence (whole entry): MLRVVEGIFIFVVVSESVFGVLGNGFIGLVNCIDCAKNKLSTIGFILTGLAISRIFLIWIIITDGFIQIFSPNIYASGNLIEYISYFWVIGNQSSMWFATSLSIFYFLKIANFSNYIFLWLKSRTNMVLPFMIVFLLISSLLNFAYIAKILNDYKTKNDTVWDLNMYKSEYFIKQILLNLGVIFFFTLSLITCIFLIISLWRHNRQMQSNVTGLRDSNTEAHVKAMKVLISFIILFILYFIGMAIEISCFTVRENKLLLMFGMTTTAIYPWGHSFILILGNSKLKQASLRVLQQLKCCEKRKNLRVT
Put plainly: Agonist activity at recombinant human N-terminal rat ST3 receptor-fused TAS2R10 expressed in HEK293T cells co-expressing Galpha16gust44 assessed as effect on intracellular calcium level at 100 uM by FLIPR assay. (A change in cytosolic calcium serves as a functional read-out for many receptors and channels.)

Assay [2] concerns the target T2, Taste receptor type 2 member 14 (Homo sapiens) (UniProt Q9NYV8).
T2 sequence (whole entry): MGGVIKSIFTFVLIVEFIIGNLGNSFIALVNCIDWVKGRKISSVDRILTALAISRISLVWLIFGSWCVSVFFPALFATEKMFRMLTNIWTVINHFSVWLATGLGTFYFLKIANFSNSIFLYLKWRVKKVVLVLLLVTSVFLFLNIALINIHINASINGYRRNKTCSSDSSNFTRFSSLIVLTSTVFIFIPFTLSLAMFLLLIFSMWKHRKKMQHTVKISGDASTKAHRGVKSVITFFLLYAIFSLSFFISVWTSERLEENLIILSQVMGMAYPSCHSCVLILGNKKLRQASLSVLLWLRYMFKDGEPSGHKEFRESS
Put plainly: Activity at recombinant human N-terminal rat ST3 receptor-fused TAS2R14 expressed in HEK293T cells co-expressing Galpha16gust44 assessed as effect on aristolochic acids-induced intracellular calcium level at 100 uM by FLIPR assay.

For assay [3], the target named is T3, Taste receptor type 2 member 43 (Homo sapiens) (UniProt P59537).
T3 sequence (whole entry): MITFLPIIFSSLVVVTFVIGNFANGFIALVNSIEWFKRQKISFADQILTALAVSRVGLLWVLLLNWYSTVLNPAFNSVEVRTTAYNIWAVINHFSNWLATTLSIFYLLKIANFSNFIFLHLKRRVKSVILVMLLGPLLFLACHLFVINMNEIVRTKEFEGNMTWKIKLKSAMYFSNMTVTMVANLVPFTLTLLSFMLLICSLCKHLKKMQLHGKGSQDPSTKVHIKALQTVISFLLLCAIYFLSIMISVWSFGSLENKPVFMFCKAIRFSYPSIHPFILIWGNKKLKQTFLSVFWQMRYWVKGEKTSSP
As to the kind of experiment: Antagonist activity at recombinant human N-terminal rat ST3 receptor-fused TAS2R43 expressed in HEK293T cells co-expressing Galpha16gust44 assessed as reduction in aristolochic acids-induced intracellular calcium level at 100 uM by FLIPR assay.

Assay [4] concerns the target T4, Taste receptor type 2 member 46 (Homo sapiens) (UniProt P59540).
T4 sequence (whole entry): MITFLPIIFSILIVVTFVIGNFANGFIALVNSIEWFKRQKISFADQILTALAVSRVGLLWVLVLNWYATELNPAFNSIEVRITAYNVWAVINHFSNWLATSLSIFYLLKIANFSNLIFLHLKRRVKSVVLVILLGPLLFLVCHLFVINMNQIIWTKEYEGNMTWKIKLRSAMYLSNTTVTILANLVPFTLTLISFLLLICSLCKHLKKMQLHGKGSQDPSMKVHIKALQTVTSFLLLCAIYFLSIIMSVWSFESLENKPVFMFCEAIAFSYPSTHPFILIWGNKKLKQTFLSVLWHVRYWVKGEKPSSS
As to the kind of experiment: Agonist activity at recombinant human N-terminal rat ST3 receptor-fused TAS2R46 expressed in HEK293T cells co-expressing Galpha16gust44 assessed as effect on intracellular calcium level at 100 uM by FLIPR assay.

Assay [5] concerns the target T5, Taste receptor type 2 member 30 (Homo sapiens) (UniProt P59541).
T5 sequence (whole entry): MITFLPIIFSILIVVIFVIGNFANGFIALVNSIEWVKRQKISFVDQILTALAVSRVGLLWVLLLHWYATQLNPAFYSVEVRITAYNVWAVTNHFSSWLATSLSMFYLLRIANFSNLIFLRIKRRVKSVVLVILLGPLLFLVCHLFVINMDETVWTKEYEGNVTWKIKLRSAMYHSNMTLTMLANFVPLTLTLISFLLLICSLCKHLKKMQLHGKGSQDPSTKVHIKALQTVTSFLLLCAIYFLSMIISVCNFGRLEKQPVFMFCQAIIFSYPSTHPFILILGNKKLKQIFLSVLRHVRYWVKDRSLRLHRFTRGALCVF
Put plainly: Antagonist activity at recombinant human N-terminal rat ST3 receptor-fused TAS2R47 expressed in HEK293T cells co-expressing Galpha16gust44 assessed as inhibition of brucine-induced intracellular calcium level at 100 uM by FLIPR assay.

Assay [6] concerns the target T6, Taste receptor type 2 member 50 (Homo sapiens) (UniProt P59544).
T6 sequence (whole entry): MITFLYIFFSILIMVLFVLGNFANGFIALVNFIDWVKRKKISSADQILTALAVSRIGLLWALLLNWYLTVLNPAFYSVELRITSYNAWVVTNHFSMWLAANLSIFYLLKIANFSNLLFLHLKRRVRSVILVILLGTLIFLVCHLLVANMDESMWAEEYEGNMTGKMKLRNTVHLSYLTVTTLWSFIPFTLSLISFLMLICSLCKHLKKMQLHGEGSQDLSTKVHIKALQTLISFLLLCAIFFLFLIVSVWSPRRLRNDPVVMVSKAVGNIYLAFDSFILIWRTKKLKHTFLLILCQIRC
As to the kind of experiment: Activity at recombinant human N-terminal rat ST3 receptor-fused TAS2R50 expressed in HEK293T cells co-expressing Galpha16gust44 assessed as effect on andrographolide-induced intracellular calcium level at 100 uM by FLIPR assay.

Assay [7] addresses T4, Taste receptor type 2 member 46 (Homo sapiens). As to the kind of experiment: Antagonist activity at recombinant human N-terminal rat ST3 receptor-fused TAS2R46 expressed in HEK293T cells co-expressing Galpha16gust44 assessed as inhibition of picrotoxinin-induced intracellular calcium level at 100 uM by FLIPR assay.
The target of assay [8] is Taste receptor type 2 member 40 (Homo sapiens) (UniProt P59535). As to the kind of experiment: Antagonist activity at recombinant human N-terminal rat ST3 receptor-fused TAS2R40 expressed in HEK293T cells co-expressing Galpha16gust44 assessed as inhibition of cohumulone-induced intracellular calcium level at 100 uM by FLIPR assay.

Structures are written as SMILES. Activity calls are given as the source filed them. The rule behind the calls is not given here.

Sequence of Taste receptor type 2 member 40 (Homo sapiens) (P59535 whole entry, the tested form may be a part): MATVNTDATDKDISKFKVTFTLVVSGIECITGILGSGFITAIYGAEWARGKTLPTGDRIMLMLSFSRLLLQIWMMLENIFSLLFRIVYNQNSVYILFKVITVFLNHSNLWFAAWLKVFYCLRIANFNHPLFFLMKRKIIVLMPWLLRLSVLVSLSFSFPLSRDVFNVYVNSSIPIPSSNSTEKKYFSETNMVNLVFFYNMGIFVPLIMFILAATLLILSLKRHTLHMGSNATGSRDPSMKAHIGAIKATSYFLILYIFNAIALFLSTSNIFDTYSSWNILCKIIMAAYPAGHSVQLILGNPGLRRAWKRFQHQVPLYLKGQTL

With `C/C1=C\C[C@H](O)[C@@H](C)C[C@H]2OC(=O)[C@@H](C)C2CC1` (stereo partly specified), the outcome in assay [1] and in assay [4] was Active. The result in assay [2] and in assay [6] was inactive. Moreover, the inhibition in assay [3] and in assay [5] was 100% in each case. Besides, the inhibition result in assay [7] and in assay [8] was “Active” each time.

With `C/C1=C\C[C@H](O)/C(C)=C/[C@H]2OC(=O)[C@@H](C)C2CC1` (stereo partly specified), the outcome in assay [1] was Active. For the same molecule, the result in assay [2], in assay [4] and in assay [6] was inactive. The inhibition result in assay [3], in assay [5], in assay [7] and in assay [8] was “Active” throughout.

The inhibition is the relative decrease from the control value, in per cent.

These data come from ChEMBL document CHEMBL4421717, “Antagonists and agonists of bitter taste receptors and uses thereof” (2012).
